Data from PubChem BioAssay AID1963447 (Molecular Pharmacology Branch, DTP, NCI, 2024).
pIC50: −log10 of the molar value.

System: 885512-296-R-J2-PDC complex spheroid growth, % test/control
Test: Anticancer human tumor 885512-296-R-J2-PDC patient-derived breast carcinoma cell line growth inhibition [Asc]
Settings: for viability, T/C: stronger effect = lower value
Method in brief: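 Concentration series start at each agent's clinical Cmax, or at 10 microM when none is established, and drop in half-log steps; agents are applied alone or together to complex spheroids built with HUVEC and hMSC.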

[1] = curve of first compound, second compound 0.01 µM
[2] = curve of first compound, second compound 0.0316 µM
[3] = curve of first compound, second compound 0.1 µM
[4] = curve of first compound, second compound 0.316 µM
[5] = curve of first compound, second compound 1 µM
[6] = second compound 0.01 µM, first compound 0.0316 µM
[7] = second compound 0.01 µM, first compound 0.1 µM
[8] = second compound 0.01 µM, first compound 0.316 µM
[9] = second compound 0.01 µM, first compound 1 µM
[10] = second compound 0.0316 µM, first compound 0.0316 µM
[11] = second compound 0.0316 µM, first compound 0.1 µM
[12] = second compound 0.0316 µM, first compound 0.316 µM
[13] = second compound 0.0316 µM, first compound 1 µM
[14] = second compound 0.1 µM, first compound 0.0316 µM
[15] = second compound 0.1 µM, first compound 0.1 µM
[16] = second compound 0.1 µM, first compound 0.316 µM
[17] = second compound 0.1 µM, first compound 1 µM
[18] = second compound 0.316 µM, first compound 0.0316 µM
[19] = second compound 0.316 µM, first compound 0.1 µM
[20] = second compound 0.316 µM, first compound 0.316 µM
[21] = second compound 0.316 µM, first compound 1 µM
[22] = second compound 1 µM, first compound 0.0316 µM
[23] = second compound 1 µM, first compound 0.1 µM
[24] = second compound 1 µM, first compound 0.316 µM
[25] = second compound 1 µM, first compound 1 µM
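Also: spheroids exposed to compounds for seven days.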
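For viability, T/C in this document: 100% = DMSO vehicle control wells.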

`O=C(c1ccc(F)c(F)c1Nc1ccc(I)cc1F)N1CC(O)([C@@H]2CCCCN2)C1` + CNC(C)C(=O)NC1CN(S(=O)(=O)c2cccc(S(=O)(=O)N3CCC4CCC(C(=O)NC(c5ccccc5)c5ccccc5)N4C(=O)C(NC(=O)C(C)NC)C3)c2)CCC2CCC(C(=O)NC(c3ccccc3)c3ccccc3)N2C1=O showed a pIC50 [1] of 7.03, a pIC50 [2] of 6.97 and a pIC50 [3] of 6.95. For the same compound, the pIC50 [4] was 6.90, the pIC50 [5] was 6.80 and the viability, T/C (second compound 0.01 µM, first compound 0.00316 µM) was 92.1%. It also gave a viability, T/C (second compound 0.01 µM, first compound 0.01 µM) of 80.5%, a viability, T/C [6] of 59% and a viability, T/C [7] of 50.2%. It also gave a viability, T/C [8] of 37.5%, a viability, T/C [9] of 15.1% and a viability, T/C (second compound 0.0316 µM, first compound 0.00316 µM) of 98.3%. The viability, T/C (second compound 0.0316 µM, first compound 0.01 µM) was 84.3%, the viability, T/C [10] was 78% and the viability, T/C [11] was 48%. It also gave a viability, T/C [12] of 32%, a viability, T/C [13] of 16.6% and a viability, T/C (second compound 0.1 µM, first compound 0.00316 µM) of 99.5%. It also gave a viability, T/C (second compound 0.1 µM, first compound 0.01 µM) of 95.8%, a viability, T/C [14] of 78.6% and a viability, T/C [15] of 47.8%. For the same compound, the viability, T/C [16] was 35.1%, the viability, T/C [17] was 15.9% and the viability, T/C (second compound 0.316 µM, first compound 0.00316 µM) was 102%. For the same compound, the viability, T/C (second compound 0.316 µM, first compound 0.01 µM) was 99.5%, the viability, T/C [18] was 82.5% and the viability, T/C [19] was 53.8%. For the same compound, the viability, T/C [20] was 31.4%, the viability, T/C [21] was 16.5% and the viability, T/C (second compound 1 µM, first compound 0.00316 µM) was 103%. For the same compound, the viability, T/C (second compound 1 µM, first compound 0.01 µM) was 96.2%, the viability, T/C [22] was 89.7% and the viability, T/C [23] was 60.9%. It also gave a viability, T/C [24] of 32.8% and a viability, T/C [25] of 16.8%.
In the case of `Cc1c(S(C)(=O)=O)c(-c2cc(F)cc(N3CCN(c4ccc(NS(=O)(=O)c5ccc(NC(CCN6CCC(C(=O)OCCCP(=O)(O)O)CC6)CSc6ccccc6)c(S(=O)(=O)C(F)(F)F)c5)cc4)CC3)c2)c(-c2ccc(Cl)cc2)n1C(C)C` (stereo not given), the viability, T/C (compound 0.1 µM) was 84.8% [middle of 14 runs], the viability, T/C (compound 0.316 µM) was 86.5% [middle of 14 runs] and the viability, T/C (compound 1 µM) was 88.8% [middle of 14 runs]. The viability, T/C (compound 10 µM) was 114% [middle of 14 runs] and the pIC50 (compound alone, run of 09/27/2022) was < 5.00.
For `CCN1CCN(Cc2ccc(Nc3ncc(F)c(-c4cc(F)c5nc(C)n(C(C)C)c5c4)n3)nc2)CC1` + CCN1C(C(=O)NC23CCC(C(=O)O)(CC2)CC3)C(c2cccc(Cl)c2F)C2(C(=O)Nc3cc(Cl)ccc32)C12CCCCC2, the pIC50 (curve of first compound, second compound 0.03 µM) was < 6.00, the pIC50 (curve of first compound, second compound 0.0949 µM) was < 6.00 and the pIC50 (curve of first compound, second compound 0.3 µM) was < 6.00. For the same compound, the pIC50 (curve of first compound, second compound 0.949 µM) was < 6.00, the pIC50 (curve of first compound, second compound 3 µM) was > 8.50 and the viability, T/C (second compound 0.03 µM, first compound 0.00316 µM) was 98.5%. It also gave a viability, T/C (second compound 0.03 µM, first compound 0.01 µM) of 101%, a viability, T/C (second compound 0.03 µM, first compound 0.0316 µM) of 81.3% and a viability, T/C (second compound 0.03 µM, first compound 0.1 µM) of 76.4%. For the same compound, the viability, T/C (second compound 0.03 µM, first compound 0.316 µM) was 79.1%, the viability, T/C (second compound 0.03 µM, first compound 1 µM) was 62% and the viability, T/C (second compound 0.0949 µM, first compound 0.00316 µM) was 96.1%. The viability, T/C (second compound 0.0949 µM, first compound 0.01 µM) was 91.8%, the viability, T/C (second compound 0.0949 µM, first compound 0.0316 µM) was 80.5% and the viability, T/C (second compound 0.0949 µM, first compound 0.1 µM) was 64.1%. The viability, T/C (second compound 0.0949 µM, first compound 0.316 µM) was 80.8%, the viability, T/C (second compound 0.0949 µM, first compound 1 µM) was 59.9% and the viability, T/C (second compound 0.3 µM, first compound 0.00316 µM) was 74.2%. For the same compound, the viability, T/C (second compound 0.3 µM, first compound 0.01 µM) was 90.3%, the viability, T/C (second compound 0.3 µM, first compound 0.0316 µM) was 75.2% and the viability, T/C (second compound 0.3 µM, first compound 0.1 µM) was 69%. It also gave a viability, T/C (second compound 0.3 µM, first compound 0.316 µM) of 66%, a viability, T/C (second compound 0.3 µM, first compound 1 µM) of 56.3% and a viability, T/C (second compound 0.949 µM, first compound 0.00316 µM) of 69.7%. It also gave a viability, T/C (second compound 0.949 µM, first compound 0.01 µM) of 58.7%, a viability, T/C (second compound 0.949 µM, first compound 0.0316 µM) of 60.3% and a viability, T/C (second compound 0.949 µM, first compound 0.1 µM) of 50.5%. The viability, T/C (second compound 0.949 µM, first compound 0.316 µM) was 50.4%, the viability, T/C (second compound 0.949 µM, first compound 1 µM) was 54.9% and the viability, T/C (second compound 3 µM, first compound 0.00316 µM) was 41.1%. It also gave a viability, T/C (second compound 3 µM, first compound 0.01 µM) of 35.3%, a viability, T/C (second compound 3 µM, first compound 0.0316 µM) of 40.8% and a viability, T/C (second compound 3 µM, first compound 0.1 µM) of 38.7%. For the same compound, the viability, T/C (second compound 3 µM, first compound 0.316 µM) was 37.3% and the viability, T/C (second compound 3 µM, first compound 1 µM) was 39.4%.
For `C#Cc1c(F)ccc2cc(O)cc(-c3ncc4c(N5CC6CCC(C5)N6)nc(OCC56CCCN5CC(F)C6)nc4c3F)c12` (stereo not given) + CNC(C)C(=O)NC1CN(S(=O)(=O)c2cccc(S(=O)(=O)N3CCC4CCC(C(=O)NC(c5ccccc5)c5ccccc5)N4C(=O)C(NC(=O)C(C)NC)C3)c2)CCC2CCC(C(=O)NC(c3ccccc3)c3ccccc3)N2C1=O, the pIC50 [1] was < 5.00, the pIC50 [2] was < 5.00 and the pIC50 [3] was < 5.00. The pIC50 [4] was < 5.00, the pIC50 [5] was < 5.00 and the viability, T/C [6] was 94.5%. It also gave a viability, T/C [7] of 111%, a viability, T/C [8] of 83.5% and a viability, T/C [9] of 69.7%. It also gave a viability, T/C (second compound 0.01 µM, first compound 3.16 µM) of 89.9%, a viability, T/C (second compound 0.01 µM, first compound 10 µM) of 94.5% and a viability, T/C [10] of 102%. For the same compound, the viability, T/C [11] was 104%, the viability, T/C [12] was 96.6% and the viability, T/C [13] was 110%. It also gave a viability, T/C (second compound 0.0316 µM, first compound 3.16 µM) of 108%, a viability, T/C (second compound 0.0316 µM, first compound 10 µM) of 91.5% and a viability, T/C [14] of 102%. The viability, T/C [15] was 97%, the viability, T/C [16] was 109% and the viability, T/C [17] was 99.4%. It also gave a viability, T/C (second compound 0.1 µM, first compound 3.16 µM) of 108%, a viability, T/C (second compound 0.1 µM, first compound 10 µM) of 86.9% and a viability, T/C [18] of 112%. The viability, T/C [19] was 109%, the viability, T/C [20] was 104% and the viability, T/C [21] was 112%. For the same compound, the viability, T/C (second compound 0.316 µM, first compound 3.16 µM) was 107%, the viability, T/C (second compound 0.316 µM, first compound 10 µM) was 86.7% and the viability, T/C [22] was 107%. The viability, T/C [23] was 108%, the viability, T/C [24] was 116% and the viability, T/C [25] was 105%. The viability, T/C (second compound 1 µM, first compound 3.16 µM) was 105% and the viability, T/C (second compound 1 µM, first compound 10 µM) was 94.6%.
